For test [1], the system named is ACoAT promoter-β-galactosidase reporter gene in yeast strain MEY133::pACoAT (sterol biosynthesis). Briefly: Reporter gene (β-galactosidase) induction assay in reporter yeast strain. The format is cell-based, S. cerevisiae. To be noted: for concentration above which reporter gene activity is induced: 24 hours at 30° C.; for reporter gene induction per cell: relative to basal. As for the experimental part:
Reporter gene induction is defined as:
where f refers to a final reading, and i to an initial reading. 100 to a concentration of 100 μg/ml and 10 to a concentration of 10 ng/ml. Reporter gene induction per cell is defined as: […]
(§1) Reporter gene activity assays (β-galactosidase assays) were performed using a single step procedure with the substrate chlorophenol red-β-D-galactopyranoside (CPRG, Boehringer): this substrate gives rise to a red product when cleaved by β-galactosidase. The appearance of this product can assessed by monitoring the optical density at 570 nm (OD570). The assays were performed in the wells of microtitre plates containing 200 μi of yeast in uracil-deficient medium. 50 μl of reaction mix was added to these wells, and immediately after this the absorption at 570 nm was measured using a Molecular Devices plate reader. Reaction mix was prepared as follows. 10×Z buffer (Ausabel et al) was prepared by dissolving 85.2 g Na2HPO4, 62.4 g NaH2PO4.2H2O, 7.5 g KCl and 2.46 g MgSO4.7H2O in 500 mls water. 2.7 mls β-mercaptoethanol was added to this solution and mixed. The pH was adjusted to pH 7 using 5M NaOH and the volume made up to 1 litre with water. 200 mls of reaction buffer was made by mixing 100 mls 10×Z buffer, 1.0 ml of 20% (w/v) sodium docedyl sulphate, 10 mls 50 mM CPRG and 89 mls water. After 2 hours a final OD570 reading was taken. Over this time frame, using the yeast strains descibed below, the rate of change of OD570 was constant. Therefore OD570final minus OD570 initial is taken as a measure of total reporter gene activity. OD570 initial is taken as a measurement of the number of cells in the culture, and reporter gene activity per cell is calculated as […].
Maximal induction of reporter gene activity by terbinafine in MEY133::pACoAT was obtained by:
(1) thawing a 1 ml aliquot of frozen stock and adding it to 100 ml of uracil deficient medium in a 500 ml conical flask and incubating for 24 hours at 30° C. with agitation to aerate the culture.
(2) diluting a sample of this culture with uracil deficient medium to give 100 mls of a culture with an optical density at 600 nm of 1.0 units, and incubating this culture for a further 24 hours in an incubator at 30° C. with agitation.
(§2) (3) diluting a sample of this culture with uracil deficient medium to give a culture with an optical density at 600 nm of 0.35 units. This culture was dispensed into 96 well flat-bottomed mucrotitre plates containing compounds. Each well contained 20 μl compound dissolved in 10% (v/v) dimethylsulphoxide. 180 μl culture was added each well. The plates were sealed with Titertex plate sealers and incubated for 24 hours at 30° C.
(§3) (4) The plates were removed from the incubator, and shaken to resuspend the yeast. The platesealers were removed and […] reaction mix added to each well. An initial OD570 reading was taken immediately following this addition. After a further two hours a final OD570 reading was taken. Optical density readings were taken with a Molecular Devices platereader using Softmax software. The machine was set to automatically agitate the samples before taking the reading.
(§4) The reporter gene in the yeast strain MEY133::ACoAT is induced by a range of sterol biosynthesis inhibitor. FIGS. 2-10 present dose-responses to nine different sterol biosynthesis inhibitors. The measurements of reporter gene activity and growth were obtained using the standard procedure described above. Each point on the graph is the average of three measurements, standard deviations being indicated by the error bars. In the absence of sterol biosynthesis inhibitors, a basal activity of the reporter gene is observed. This corresponds to a change in OD570 of 0.23 units/two hours (average of 15 measurements). During the period of time of the incubation the yeast cells grow to a density of 0.86 OD570 units (average of 15 measurements).
Background: A reporter such as luciferase makes a cellular process visible.

The test system is the same in test [2]. Described as above. The format is cell-based, S. cerevisiae.
The subject of test [3] is yeast strain MEY133::pACoAT. The experiment in a line: Growth of reporter yeast strain (OD570). Type of test: cell-based, S. cerevisiae. To be noted: OD570, 24 hours incubation. The method, then:
Reporter gene activity (OD570final−OD570initial) is indicated by solid squares. Growth (OD570 final) is indicated by open squares. Each point is the average of three measurements. Error bars indicate standard deviations.
as §1, §2, §3, §4

In the next test the test system is Squalene synthase. To be noted: S. cerevisiae, application of inhibitor; cited from earlier work.
Test [4] relates to lanosterol 14-a-demethylase gene induction. Particulars: HMG1-deleted yeast; cited from earlier work.

These results are taken from US6828092B1 (priority 1995, dated 2004).

For `CCCCCCN1CCCC(Cc2ccc(C(C)(C)C)cc2)C1` (centres unmarked) [3-(4-t-butylbenzyl)-(N-hexyl)-piperidine], the “reporter gene activity response (in words)” value in test [1] (MEY133::pACoAT) is “very sharp”. In test [1] (MEY133::pACoAT, dose-response), the “concentration above which reporter gene activity is induced” value is reported as “above 10 μg/ml”.

As to `CN(Cc1ccc(C(C)(C)C)cc1)Cc1cccc2ccccc12` [4-t-butyl-N-methyl-N-(I-naphthylmethyl)benzylamine], the “reporter gene induction compared with terbinafine” value is “much less active than terbinafine” in test [2] (at 10 μg/ml) and “to the same extent as terbinafine” in test [1] (at 100 μg/ml).

With `Nc1nc(=O)[nH]cc1F` [5-flucytosine], the “reporter gene activity response (in words)” value in test [1] (MEY133::pACoAT) is reported as “do not induce reporter gene activity”.

With `CCC(C)(C)c1ccc(CC(C)CN2C[C@@H](C)O[C@@H](C)C2)cc1` (some centres unmarked) [Amorolfine], the “growth inhibition (in words)” value in test [3] is given as “some growth inhibitory properties”. Also, the “concentration above which reporter gene activity is induced” value in test [1] (MEY133::pACoAT, dose-response) is given as “above 1 μg/ml”.

As to `CC(Cc1ccc(C(C)(C)C)cc1)CN1C[C@@H](C)O[C@@H](C)C1` (some centres unmarked) [Fenpropimorph], the “growth inhibition (in words)” value in test [3] is on record as “inhibiting growth to some extent”. For the same molecule, the “reporter gene activity response (in words)” value in test [1] (MEY133::pACoAT) is given as “induces reporter gene activity”.

With `OC(Cn1cncn1)(c1ccc(F)cc1)c1ccccc1F` (centres unmarked) [Flutriafol], in test [3], the “growth inhibition (in words)” value is “Some growth inhibition”. The “concentration at which detectable reporter gene induction occurs” value in test [1] (MEY133::pACoAT, dose-response) is 0.1 µg/mL.

`CC[C@H](C)C(=O)O[C@H]1C[C@@H](C)C=C2C=C[C@H](C)[C@H](CC[C@@H]3C[C@@H](O)CC(=O)O3)[C@H]21` [Lovastatin]: in test [1] (MEY133::pACoAT, dose-response), the “concentration above which reporter gene activity is induced” value is “above 1 μg/ml”. Besides, in test [1], the “reporter gene induction per cell” value was found to be 5 fold. In the test on Squalene synthase, the “increase of squalene synthase levels” value is reported as 2-3 fold.

`C=C(CC[C@]12O[C@H](C(=O)O)[C@@](O)(C(=O)O)[C@](C(=O)O)(O1)[C@H](OC(=O)/C=C/[C@@H](C)C[C@@H](C)CC)[C@H]2O)[C@@H](OC(C)=O)[C@H](C)Cc1ccccc1` [Squalestatin]: the “reporter gene activity per cell, comparison of concentrations” value in test [2] (10 μg/ml versus 100 μg/ml) is “almost identical”. Moreover, the “growth inhibition (in words)” value in test [3] is on record as “growth inhibitory effect of squalestatin at higher concentrations”. Moreover, the “reporter gene activity response (in words)” value in test [1] (MEY133::pACoAT) is reported as “biphasic response”. The “concentration of maximal reporter gene induction” value in test [1] (MEY133::pACoAT, dose-response) is 10 µg/mL.

For `CN(C/C=C/C#CC(C)(C)C)Cc1cccc2ccccc12` [Terbinafine], the “growth inhibition (in words)” value in test [3] is “inhibits growth to a limited extent”. For the same molecule, the “concentration above which reporter gene activity is induced” value in test [1] (MEY133::pACoAT, dose-response) is on record as “above 1 μg/ml”. For the same molecule, in test [1], the “reporter gene induction per cell” value was found to be 9 fold.

With `C[C@@H]1[C@H](O)[C@@H](C)/C=C/C=C/C=C/C=C/C=C/C=C/C=C/[C@H](O[C@@H]2O[C@H](C)[C@@H](O)[C@H](N)[C@@H]2O)C[C@@H]2O[C@](O)(C[C@@H](O)C[C@@H](O)[C@H](O)CC[C@@H](O)C[C@@H](O)CC(=O)O[C@H]1C)C[C@H](O)[C@H]2C(=O)O` [amphotericin B], in test [1] (MEY133::pACoAT), the “reporter gene activity response (in words)” value is recorded as “do not induce reporter gene activity”.

Take `Cc1cccc(N(C)C(=S)Oc2ccc3ccccc3c2)c1` [tolnaftate]: the “detection in Kirsch screen” value in test [4] was “not detected”.
